From patent US12097174B2, “Methods and agents that enhance myogenic progenitor cell engraftment” (President and Fellows of Harvard College, priority 2018, dated 2024)
Entries after “also recorded” stand apart in the source; their conditions may differ.

What was measured:
C2C12 cells = test: Calcium imaging in Fura-2, AM treated C2C12 cells (single-cell imaging); assay type: cell-based, mouse; details: 10 μM NFA, 5 μM LPA; 10-20 seconds after loading
Description: Fura-2, AM treated C2C12 cells were exposed to 10 μM NFA, 5 μM LPA or DMSO as vehicle control to visualize the effect on intracellular calcium ion concentration using single-cell imaging. […] Scale bar 50 μm.
The ZeMPCs and C2C12 cells were incubated with Fura-2, AM (Thermo Fisher Sci F1225), a cell permeant fluorescent calcium ion indicator, for 45 minutes at 28.5° C. and 37° C., respectively, followed by imaging with Celldiscoverer7 Microscope (Zeiss). 20 seconds after imaging initiation the treatment was added to the cells and continued for a total of 2-3 minutes.

ZeMPCs [1] = test: ZeMPC competitive transplantation assay; assay type: in vivo; details: co-injected into prkdc-mutant zebrafish, imaged at 7 dpt
Text: FIGS. 20A-20B show ZeMPC competitive transplantation assays results. (FIG. 20A) Experimental design of ZeMPC competitive transplantation assays using different combinations of chemical-treated or DMSO-treated ZeMPCs marked by mCherry or GFP. ZeMPCs were co-injected from mylz2-GFP and mylz2-mCherry donors into 4- to 8-months-old prkdc-mutant recipient zebrafish and imaged at 7 dpt to assess the engraftment of mylz2-mCherry (pre-transplantation treatment with DMSO) and mylz2-GFP (pre-transplantation treatment with DMSO, LPA or NFA) cells. (FIG. 20B) Engraftment efficiency of equal numbers of DMSO-treated mCherry cells vs. DMSO-treated GFP cells (left), DMSO-treated mCherry cells vs. LPA-treated GFP cells (middle) and DMSO-treated mCherry cells vs. NFA-treated GFP cells (right).
Lipids are frequently found to enhance cell migration and homeostasis in blood and muscle tissue (Cencetti et al., 2014; Lahvic et al., 2018; Li et al., 2015; Oh et al., 2016), and so it was elected to screen mainly bioactive lipids in efforts to identify compounds that enhance ZeMPCs engraftment efficiency in vivo. Myogenic progenitor cells were treated for 4 hours with one of the 188 unique lipid compounds contained in the ICCB Known Bioactives Library. […] Engraftment efficiency was measured by imaging casper recipients at 7 dpt (FIG. 18A). […]

ZeMPCs [2] = test: RNA sequencing of treated ZeMPCs; assay type: cell-based, zebrafish
Text: To gain insight into the mechanisms through which LPA and NFA treatment might enhance donor cell engraftment in vertebrate muscle, RNA sequencing analysis were next performed in treated ZeMPCs and in mouse satellite cells. Comparison of differential gene expression in NFA-treated or LPA-treated cells to vehicle-treated cells indicated upregulation of calcium-dependent genes in response to these compounds in both ZeMPCs (FIG. 21) and mouse satellite cells (FIGS. 15A and 15B).
Isolated mouse muscle satellite cells and ZeMPCs were used to prepare RNA after in vitro chemical treatment. Total RNA was isolated by the micro RNeasy kit (QIAGEN). cDNA was prepared using SMART Seq v4 Ultra Low RNA-Seq kit for 48 reactions (Takara) and a Nextera kit was used for library construction. Sequencing data FASTQ files for samples were processed in tophat-cufflinks workflow in a Linux server operating system to output gene-level abundance estimates and statistical inference as gene-level raw counts. Those raw counts for samples were input into the cuffdiff for differential gene expression analysis. The assigned GEO accession number for the RNA sequencing data is GSE143801.

muscle progenitor cells = test: Measurement of Ca2+ transients in fura-2 AM-loaded muscle progenitor cells; assay type: cell-based
Description: Measurement of Ca2+ transients was performed in fura-2 AM-loaded cells.
Thus, it is possible that the enhanced engraftment capacity of muscle progenitor cells exposed to these compounds involves a common Ca^2+-dependent signaling events (FIG. 9).

[3] = tested on: Zebrafish myogenic progenitor cells (ZeMPCs); test: Limiting dilution engraftment assay (ELDA): cells treated ex vivo, transplanted into adult zebrafish, imaged at 7 dpt; assay type: in vivo; details: for engraftment efficiency compared with DMSO/vehicle-treated cells: 0.1 μM LPA or 0.3 μM NFA; for engraftment efficiency relative to vehicle-treated controls: 5 μM LPA or 10 μM NFA; for engraftment capacity of transplanted myogenic progenitors in recipient adult zebrafish: 4 hour ex vivo chemical exposure, replicate transplantation
Description: Donor cells were derived from embryos that contained a GFP cassette driven by the promoter for mylz2, a muscle-specific structural protein. Recipients were optically clear, immunocompromised adult prkdc−/− zebrafish. To perform a limiting dilution assay, three doses (n=100, 200, and 400 cells) were administered per treatment (n=10 engraftment events per treatment-dose combination). The estimated engrafting cell frequency was calculated using the Extreme Limiting Dilution Analysis (ELDA, Hu et. al. 2009), which provides the most likely estimate (MLE) of engrafting cell frequency.
Given that this group of 230 lipids is too many to be examined in mice, transplantation efficiency was instead examined via limit-dilution assays in 15 recipient zebrafish per compound after a brief (4 hour) ex vivo chemical exposure. Positive hits from this primary screening were rescreened in replicate transplantation experiments incorporating dose response testing.
Lipids are frequently found to enhance cell migration and homeostasis in blood and muscle tissue (Cencetti et al., 2014; Lahvic et al., 2018; Li et al., 2015; Oh et al., 2016), and so it was elected to screen mainly bioactive lipids in efforts to identify compounds that enhance ZeMPCs engraftment efficiency in vivo. Myogenic progenitor cells were treated for 4 hours with one of the 188 unique lipid compounds contained in the ICCB Known Bioactives Library. Compound-treated cells were then harvested and transplanted intramuscularly into both flanks of 5 different casper recipient fish, with transplants performed at each of 3 transplanted cell doses (25, 75 or 150 cells). In these studies, recipient fish received split-dose irradiation of 15 Gy at 2 days and 1 day prior to transplantation to suppress any immune responses to the transplanted cells. Engraftment efficiency was measured by imaging casper recipients at 7 dpt (FIG. 18A). […] For this secondary screening approach, cells were transplanted into prkdc^D3612ls casper fish, which are deficient in mature T and B cells, and assayed engraftment efficiency in the recipient fish 7 days post-transplantation. Two compounds were identified, lysophosphatidic acid (LPA) and niflumic acid (NFA), which increased ZeMPC engraftment efficiency in both of these assay systems (FIG. 12B).
Lipids from the ICCB Known Bioactives Library (enzolifesciences.com/BML-2840/iccb-known-bioactives-library) were diluted at a 1:100 ratio in transplantation media (zESC medium without bFGF and FBS) and added to prewashed in vitro expanded muscle cells. NFA (Cayman and Santa Cruz Biotechnology) and LPA (Cayman and Santa Cruz Biotechnology) were used for the secondary confirmation screening experiments. […] 4- to 8-month-old casper recipients received split-dose irradiation of 15 Gy each, either 2 days or 1 day before transplantation. For LDA screening, cells were transplanted into each side of 5 pre-irradiated casper recipient fish or 5 non-irradiated prkdc-mutant recipient zebrafish. At 7 dpt, the recipients were anaesthetized using a previously described method (Dang et al., 2016) and imaged using a fluorescent stereo microscope (Leica M165 FC). Successful engraftment was defined as the presence of GFP+ fibers. Variation in different experiments is caused by inherent variability in the in vitro ZeMPC derivation procedure, which results in differences in engrafting cell frequency across different derivation attempts. To mitigate the impact of such experimental variation on screening results, only LDA results for cells derived from the same cultures were compared. Comparison to a vehicle-treated experimental control was included in every transplantation experiment. Next, the chemical treated cell potency and vehicle-treated cell potency was measured using the Extreme Limiting Dilution Analysis (ELDA) software (Hu and Smyth, 2009). The ratio of the treated cell potency and vehicle-treated cell potency determine the engraftment efficiency fold increase value.

| Molecule | intracellular calcium ion concentration (C2C12 cells) | advantage compared to DMSO-treated control cells in competitive transplantation (ZeMPCs [1]) | expression of calcium-dependent genes vs vehicle-treated cells (ZeMPCs [2]) | cytoplasmic Ca2+ concentration (muscle progenitor cells) | engraftment efficiency compared with DMSO/vehicle-treated cells [3] | engraftment efficiency relative to vehicle-treated controls [3] | engraftment efficiency compared with DMSO treated cells ([3]; 15 uM NFA or 4 uM LPA) | engraftment capacity of transplanted myogenic progenitors in recipient adult zebrafish [3] | engraftment efficiency relative to DMSO-treated cells ([3]; ZeMPCs treated for 1 hour) | engraftment efficiency relative to DMSO-treated cells ([3]; ZeMPCs treated for 2 hours) | engraftment efficiency relative to DMSO-treated cells ([3]; ZeMPCs treated for 4 hours) | engraftment efficiency compared with DMSO treated cells ([3]; 0.3 uM LPA) |
| --- | --- | --- | --- | --- | --- | --- | --- | --- | --- | --- | --- | --- |
| O=C(O)c1cccnc1Nc1cccc(C(F)(F)F)c1 [NFA, niflumic acid] | increase | ~2 fold | upregulation | stimulate increases | did not change the engraftment efficiency; also recorded: did not alter the engraftment efficiency; also recorded: no difference | 2.37 times | increased engraftment efficiency | increasing the engraftment capacity | did not alter | 2.85 times | 2.64 times |  |
| lysophosphatidic acid [LPA] | increase | ~2 fold | upregulation | stimulate increases | did not change the engraftment efficiency; also recorded: did not alter the engraftment efficiency; also recorded: did not result in any change | 2.34 times | increased engraftment efficiency | increasing the engraftment capacity | 1.11 times | 1.72 times | 2.3 times | did not change the engraftment efficiency |
